In patent US20150313837A1, “POLYMERIC HYDROGEL COMPOSITIONS WHICH RELEASE ACTIVE AGENTS IN RESPONSE TO ELECTRICAL STIMULUS” (University of Witwatersrand, Johannesburg, priority 2010, published 2015):

Experiment: Drug leakage from hydrogel in PBS in absence of electric current
Assay type: physicochemical
Details: comparison of drugs loaded in the hydrogel
Procedure: The indomethacin-loaded hydrogels were left in […] PBS for 12 hours, and a 1 mL sample was then taken in order to assess for any drug release prior to exposure to an electric current. […] Further tests for drug release of the indomethacin-loaded hydrogels in the presence of an electric current were performed.
The system was therefore left in 50 mL of PBS for 12 hours, and 1 mL sample was taken and assessed for any presence of drugs. […] The hydrogels were then then assessed for their drug release capacity. They were once again immersed in PBS and an electric current was passed through them. This time, 35 samples were extracted and assessed by UV/visible spectroscopy for the amount of drugs which were released.
The amount of drug released ranged from 0.081 mg to 0.160 mg. The hydrogel was then assessed one last time for any leakage of drugs. The hydrogel was immersed in 50 mL of PBS for 12 hours.
One possible explanation for this phenomenon is the larger molecular size of indomethacin as compared to diclofenac sodium and ibuprofen. This larger molecular size means that indomethacin is better entrapped inside the three dimensional network of the hydrogel system.

| SMILES | leakage of loaded drug from hydrogel when no electric current is applied |
| --- | --- |
| O=C(O)Cc1ccccc1Nc1c(Cl)cccc1Cl [Diclofenac sodium] | drug leakage may still have occurred on the surface |
| COc1ccc2c(c1)c(CC(=O)O)c(C)n2C(=O)c1ccc(Cl)cc1 [indomethacin] | no leakage occurred |
| CC(C)Cc1ccc(C(C)C(=O)O)cc1 (stereo not drawn) [ibuprofen] | drug leakage may still have occurred on the surface |
